Results reported in patent US6448280B1, “Angiotensin II antagonists against disorders associated with impaired neuronal conduction velocity, especially diabetic neuropathy” (Zeneca Limited, priority 1992, dated 2002).

How the values were obtained:
Format in all cases: in vivo
[1] = tested on: motor branches supplying the tibialis anterior muscle (sciatic nerve); assay: Motor nerve conduction velocity in streptozotocin-diabetic rats, sciatic branch to tibialis anterior; settings: streptozotocin-diabetic male rats; 50 mg/kg daily by gavage for one month, started after one month of diabetes; sciatic notch to knee
Description: (§1) Using an analogous method to that described by Cameron et al in Quarterlty Journal of Experimental Physiology, 1989, 74, 917-926, mature male rats were divided into non-diabetic animals (normal control group) and animals rendered diabetic (by administration of streptozotocin (40-45 mg/kg in 20 mmol/l sodium citrate buffer, pH 4.5, i.p.). The diabetic animals were further divided into two groups. After one month, the motor nerve conduction velocities in one of the diabetic groups (diabetic control group 1) were measured in vivo between the sciatic notch and the knee for motor branches supplying the gastrocnemius and tibialis anterior muscles of the calf using the procedures described by Cameron et al (ibid) (further details of the procedures are given in Experimental Neurology, 1986, 92, 757-761). Sensory nerve conduction velocity was also measured for diabetic control group 1 in the saphenous nerve between the groin and ankle (again using the method of Cameron et al (ibid)). The remaining group of diabetic animals was further divided into two groups. One of these groups was given daily 2-ethyl-4-[(2′-(1H-1,2,3,4-tetrazol-5-yl)biphenyl-4-yl)methoxy]quinoline hydrochloride (Compound A; 50 mg/kg) by gavage, the other group remaining untreated (diabetic control group 2). […]

[2] = tested on: motor branches supplying the gastrocnemius muscle (sciatic nerve); assay: Motor nerve conduction velocity in streptozotocin-diabetic rats, sciatic branch to gastrocnemius; settings: streptozotocin-diabetic male rats; 50 mg/kg daily by gavage for one month, started after one month of diabetes; sciatic notch to knee
Description: as §1

saphenous nerve = assay: Sensory nerve conduction velocity in streptozotocin-diabetic rats, saphenous nerve; settings: streptozotocin-diabetic male rats; 50 mg/kg daily by gavage for one month, started after one month of diabetes; groin to ankle
Description: as §1

Question: Which “Motor NCV Tibialis Anterior” value [1] does the source give for `CCc1cc(OCc2ccc(-c3ccccc3-c3nnn[nH]3)cc2)c2ccccc2n1.Cl` [Compound A, 2-ethyl-4-[(2′-(1H-1,2,3,4-tetrazol-5-yl)biphenyl-4-yl)methoxy]quinoline hydrochloride] here?
Answer: Its value is 60.3 ± 1.2 m/s.

Question: And the “Motor NCV Gastrocnemius” value [2]?
Answer: The value was 62.8 ± 0.9 m/s.

Question: What about the “Sensory NCV Saphenous” value (saphenous nerve) of the same molecule?
Answer: The value was 60.2 ± 1.1 m/s.
